Patent US8669246B2, “Substituted amide compound” (Astellas Pharma Inc., priority 2009, dated 2014)

Experiments:
human LPA1 = molecular target: T1, human LPA1 (Homo sapiens, UniProt Q92633); assay: Antagonistic action on human LPA1: inhibition of LPA-stimulated increase in intracellular calcium ion concentration in human LPA1-CHO cells; type: cell-based; details: LPA 100 nM, Fluo-4/FLIPR calcium signal
T1 construct: expressed in transfected cells
Experimental: Antagonistic Action of Compound of Formula (I) on Human LPA1
The antagonistic action on a human LPA 1 was evaluated with an index of an inhibitory action on the LPA-stimulated increase in intracellular calcium ion concentration, using human LPA 1-CHO cells [cells in which human LPA1 receptors are stably expressed in CHO (dhfr gene-deficient) cell lines].
Establishment of human LPA1-CHO cells was performed based on the basic genetic engineering techniques.
The established cells were maintained by passage in a nucleic acid-free α-MEM medium (Invitrogen) containing 10% FBS, 1% penicillin/streptomycin (Invitrogen), and 100 nM methotrexate, and before experiment, the medium was replaced with a medium that had been reduced to 1% of the […] concentration, then seeded in 96-well plates to 1.5×10e^5 cells/100 μL/well, and incubated overnight.
On the day of experiment, a 0.5 μM Fluo-4 solution [a solution prepared by adding 20 mM HEPES (Sigma), […] probenecid (Nacalai Tesque), 0.05% BSA, 0.5 μM Fluo-4 AM (Dojindo Laboratories), and 0.1% Pluronic […] (Molecular Probe Co.) to a Hanks Balanced Solt Solution (Invitrogen)] was added to the cells, and Fluo-4 was loaded on the cells by incubating for 2 hours at room temperature.
After loading Fluo-4, the Fluo-4 solution was replaced with a reaction solution [a solution obtained by adding 20 mM HEPES, […] probenecid, and 0.05% BSA to a Hanks Balanced Solt Solution], and then measurement was performed using a device for measuring an intracellular calcium concentration (FLIPR tetra, Molecular Devices Inc.).
A reaction solution in which the compound of the formula (I) (with a final concentration of 0.1 nM to 10 μM) had been dissolved was added to each of the wells, the signals were measured over time for 4 minutes, then a reaction solution in which LPA (final concentration 100 nM) had been dissolved was added thereto, and the signals were measured over time for 2 minutes. The difference between the maximum and minimum response during one minute from addition of LPA was calculated. The inhibitory activity was calculated, with a response when LPA only (not including the compound) was added was taken as 0% inhibition, and a response when a reaction solution not including both of the compound and LPA was added was taken as 100% inhibition. Then the 50% inhibitory concentration was calculated as an IC50 value (nM).
Human LPA1-CHO cells used in the present test were the cells with the same sequence as described in the pamphlet of International Publication WO 99/19513 were used. Further, Ex represents Example No. as denoted below.

[1] = Estimation of concentration in plasma after oral administration in rats using ex vivo bioassay method; details: male, Wistar, rat, 2 hours after oral administration, estimated by ex vivo bioassay from standard curve
Experimental: Estimation of Concentration in Plasma (2 Hours after Oral Administration) after Administration of Compound of Formula (I) in Rats Using Ex Vivo Bioassay Method
The concentration in the plasma after administration of the compound of the formula (I) in rats was estimated according to a bioassay method. That is, test compounds were orally administered to male Wistar rats (Charles River, 6-week old, and fasted), and after a certain period of time, blood was collected from the ophthalmic basilar plexus to give plasma. The compound was extracted from the plasma, and the extracted compound was dissolved in a certain amount of DMSO. Further, for the standard curve, the plasma in which the compounds at various concentrations had been dissolved was prepared separately, and the same extraction procedure was conducted.
The inhibitory action on the LPA-stimulated increase in the intracellular calcium ion concentration in LPA1-expressing cells in the DMSO extract was measured, and the plasma concentration in the individual after administration was estimated from the standard curve.

[2] = tested on: LPA-induced increase in urethral pressure; assay: Inhibitory action on LPA-induced increase in urethral pressure in rats under anesthesia; type: in vivo, rat (male Wistar); details: Rattus norvegicus, 5 min; 0.1 mg/kg intravenous, LPA (1-oleoyl) 3 mg/kg iv after 5 minutes, anesthetized rats, vs solvent; read-out: Inhibitory rate
Experimental: Inhibitory Action of Compound of Formula (I) on LPA-Induced Increase in Urethral Pressure in Rats Under Anesthesia (with Intravenous Administration at 0.1 mg/kg) Male Wistar rats (Charles River, 9- to 12-week old) were anesthetized with urethane (1.2 g/kg ip), and held in the supine position on an operating table kept at 37° C. The lower abdominal portion was midline-incised and the bladder was thus exposed. A small portion of the bladder apex was incised, a microchip pressure transducer (Millar) was inserted antegrade, and then placed in the urethra, and the urethral pressure was recorded continuously. In addition, a cannula for administration of a drug was placed into the femoral vein. After about 1 hour of stabilization, the compound of formula (I) (0.1 mg/kg) was administered intravenously. After 5 minutes, LPA (1-oleoyl) was administered intravenously at 3 mg/kg, and the changes in the urethral pressure were recorded. The inhibitory rates (%) of the compound of the formula (I) on the LPA-stimulated increase in the urethral pressure compared with those after administration of the solvent of the compound of the formula (I) were recorded.

T1 sequence (Q92633 whole entry): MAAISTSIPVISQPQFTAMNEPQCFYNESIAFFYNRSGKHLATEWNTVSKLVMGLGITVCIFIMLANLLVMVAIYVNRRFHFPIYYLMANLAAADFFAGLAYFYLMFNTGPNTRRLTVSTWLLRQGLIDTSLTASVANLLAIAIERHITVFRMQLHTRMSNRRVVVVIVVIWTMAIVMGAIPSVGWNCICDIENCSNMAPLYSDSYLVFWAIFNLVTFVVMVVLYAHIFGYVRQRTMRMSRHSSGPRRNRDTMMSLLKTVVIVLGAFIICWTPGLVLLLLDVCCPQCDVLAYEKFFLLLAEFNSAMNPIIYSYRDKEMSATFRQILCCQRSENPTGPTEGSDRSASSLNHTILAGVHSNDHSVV

Structure (SMILES)	IC50 (human LPA1)	concentration at 2 h [1]	melting point	inhibition in vivo at 0.1 mg/kg [2]
COc1ccc(C(O)C(=O)N(CCCc2ccccc2)Cc2nc(C(=O)NS(=O)(=O)N(C)C)c(C)s2)c(F)c1 (centres unmarked) [Example 27]	14 nM	6500 nM		
COc1ccc(CC(=O)N(CCCc2ccccc2)Cc2nc(C(=O)NS(=O)(=O)N(C)C)c(C)s2)c(OC)c1 [Example 126]	20 nM	8900 nM	132 to 135 °C	
COC(=O)N(C)S(=O)(=O)NC(=O)c1csc(CN(CCCc2ccccc2)C(=O)c2cc(OC)c(C)c(OC)c2)n1 [Example 89]	17 nM	2400 nM	135 to 137 °C	
COc1cc(C(=O)N(CCCc2ccccc2)Cc2nc(C(=O)NS(=O)(=O)N(C)CCF)c(C)s2)cc(OC)c1C [Example 100]		6700 nM		
CCNS(=O)(=O)NC(=O)c1csc(CN(CCCc2ccccc2)C(=O)c2cc(OC)c(C)c(OC)c2)n1 [Example 71]	16 nM	2100 nM	143 to 144 °C	18%
COc1cc(C(=O)N(CCCc2ccccc2)Cc2nc(C(=O)N(C)S(N)(=O)=O)cs2)cc(OC)c1C [Example 9, N-(aminosulfonyl)-2-{[(3,5-dimethoxy-4-methylbenzoyl)(3-phenylpropyl)amino]methyl}-N-methyl-1,3-thiazole-4-carboxamide]		8300 nM		28%
CONS(=O)(=O)NC(=O)c1nc(CN(CCCc2ccccc2)C(=O)c2cc(OC)cc(OC)c2)sc1C [Example 134]	25 nM	1400 nM		
COc1cc(C(=O)N(CCCc2ccccc2)Cc2nc(C(=O)NS(=O)(=O)N(CCO)CCF)cs2)cc(OC)c1C [Example 22, 2-{[(3,5-dimethoxy-4-methylbenzoyl)(3-phenylpropyl)amino]methyl}-N-{[(2-fluoroethyl)(2-hydroxyethyl)amino]sulfonyl}-1,3-thiazole-4-carboxamide]	24 nM	1300 nM		
COc1ccc(C2(C(=O)N(CCCc3ccccc3)Cc3nc(C(=O)NS(=O)(=O)N(C)C)c(C)s3)CC2)cc1 [Example 56]	29 nM	1800 nM		

Continued, in another order:

IC50 (human LPA1)	concentration at 2 h [1]	melting point	Structure (SMILES)	inhibition in vivo at 0.1 mg/kg [2]
23 nM	5600 nM	113 to 114 °C	COc1cc(OC)cc(C(=O)N(CCCc2ccccc2)Cc2nc(C(=O)NS(C)(=O)=O)c(Cl)s2)c1 [Example 145]	16%
	2200 nM		COc1cc(C(=O)N(CCCc2ccccc2)Cc2nc(C(=O)NS(=O)(=O)N(CCO)CCO)c(C)s2)cc(OC)c1C [Example 171]	
21 nM	5200 nM	162 to 164 °C	CCc1c(OC)cc(C(=O)N(CCCc2ccccc2)Cc2nc(C(=O)NS(=O)(=O)NC)c(C)s2)cc1OC [Example 153]	21%
34 nM	1800 nM	127 to 129 °C	CCN(CCO)S(=O)(=O)NC(=O)c1csc(CN(CCCc2ccccc2)C(=O)c2cc(OC)c(C)c(OC)c2)n1 [Example 170]	
15 nM	2100 nM		CNS(=O)(=O)NC(=O)c1nc(CN(CCCc2ccccc2)C(=O)c2cc(OC)c(C3CC3)c(OC)c2)sc1C [Example 156]	
24 nM	4500 nM	120 to 121 °C	COc1ccc(C(O)C(=O)N(CCCc2ccccc2)Cc2nc(C(=O)NS(N)(=O)=O)c(C)s2)cc1 (centres unmarked) [Example 176]	
